{
  "source": "ChEMBL document CHEMBL4433253",
  "about": "“Development of a novel inducer for EBV lytic therapy” (Bioorg Med Chem Lett, 2019)",
  "key": {"[1]": {"test_system": "Human gammaherpesvirus 4", "assay": "Reactivation of latent EBV infected in human MUTU-I cells incubated for 48 hrs by steady-glo luciferase reporter assay", "assay_type": "functional, organism-based", "conditions": "human gammaherpesvirus 4, MUTU-I"}, "[2]": {"test_system": "Human gammaherpesvirus 4", "assay": "Reactivation of latent EBV in human SNU-719 cells xenografted NSG mouse assessed as increase in BZLF1 protein level in tumor mass at 30 mg/kg, ip qd for 4 days starting from 28 days post infection by immunoblot analysis", "assay_type": "functional, organism-based"}, "[3]": {"test_system": "Human gammaherpesvirus 4", "assay": "Reactivation of latent EBV infected in human MUTU-I cells incubated for 48 hrs by steady-glo luciferase reporter assay relative to C60", "assay_type": "functional", "set-up": "concentration or dose not given beside the values"}, "[4]": {"test_system": "Human gammaherpesvirus 4", "assay": "Reactivation of latent EBV in human AGS cells xenografted NSG mouse assessed as increase in BZLF1 protein level in tumor mass at 25 mg/kg, ip qd for 3 days starting from 35 days post infection by immunoblot analysis"}, "[5]": {"assay": "Half life in mouse liver microsomes", "assay_type": "ADME, Microsome"}, "[6]": {"assay": "Aqueous solubility of compound in pH 7.4 PBS buffer", "assay_type": "physicochemical"}, "[7]": {"assay": "Stability in mouse plasma", "assay_type": "ADME, cell-free", "conditions": "read-out: Stability"}, "[8]": {"assay": "Stability in human plasma", "assay_type": "ADME, cell-free", "conditions": "read-out: Stability"}, "[9]": {"assay": "Half life in human liver microsomes", "assay_type": "ADME, Microsome"}},
  "note": "pEC50: −log10 of the molar value. Calls of active or inactive are those of the source. The calls are words filed in the database; no cut-off is given here.",
  "data": [
    {"smiles": "COc1ccc(C2c3[nH]c4ccc(Cl)cc4c3CCN2S(=O)(=O)c2ccc(OC)cc2)cc1", "note": "(centres undefined)", "values": [
      {"measurement": "pEC50", "setting": "[1]", "result": 5.10}
    ]},
    {"smiles": "COc1ccc(C2c3[nH]c4ccc(Cl)cc4c3CCN2C(=O)c2ccccc2C(F)(F)F)cc1", "note": "(centres undefined)", "values": [
      {"measurement": "pEC50", "setting": "[1]", "result": 5.80}
    ]},
    {"smiles": "COc1ccc(C2c3[nH]c4ccc(Cl)cc4c3CCN2C(=O)c2ccccc2OC)cc1", "note": "(centres undefined)", "values": [
      {"measurement": "pEC50", "setting": "[1]", "result": 5.37}
    ]},
    {"smiles": "COc1cccc(C(=O)N2CCc3c([nH]c4ccc(Cl)cc34)C2c2ccc(O)cc2)c1", "note": "(centres undefined)", "values": [
      {"measurement": "Activity", "setting": "[2]", "result": "Active"},
      {"measurement": "pEC50", "setting": "[1]", "result": 6.51}
    ]},
    {"smiles": "COc1ccc(C2c3[nH]c4ccc(Cl)cc4c3CCN2C(=O)c2cccc(CN3CCOCC3)c2)cc1", "note": "(centres undefined)", "values": [
      {"measurement": "pEC50", "setting": "[1]", "result": 6.56}
    ]},
    {"smiles": "COc1ccc(C2c3[nH]c4ccc(Cl)cc4c3CCN2C(=O)Nc2cccc(OC)c2)cc1", "note": "(centres undefined)", "values": [
      {"measurement": "Activity", "setting": "[3]", "result": 43, "unit": "%"}
    ]},
    {"smiles": "COc1ccc(NC(=O)N2CCc3c([nH]c4ccc(Cl)cc34)C2c2ccc(OC)cc2)cc1", "note": "(centres undefined)", "values": [
      {"measurement": "Activity", "setting": "[3]", "result": 31, "unit": "%"}
    ]},
    {"smiles": "COc1ccc(C2c3[nH]c4ccc(Cl)cc4c3CCN2C(=O)c2ccc(Cl)cc2)cc1", "note": "(centres undefined)", "values": [
      {"measurement": "pEC50", "setting": "[1]", "result": 6.64}
    ]},
    {"smiles": "COc1ccc(C2NCCc3c2[nH]c2ccc(Cl)cc32)cc1", "note": "(centres undefined)", "values": [
      {"measurement": "pEC50", "setting": "[1]", "result": 6.67}
    ]},
    {"smiles": "COc1ccc(C2c3[nH]c4ccccc4c3CCN2C(=O)Nc2ccccc2OC)cc1", "note": "(centres undefined)", "values": [
      {"measurement": "Activity", "setting": "[3]", "result": 15, "unit": "%"}
    ]},
    {"smiles": "COc1ccc(C2c3[nH]c4ccc(Cl)cc4c3CCN2C(=O)c2ccccc2Cl)cc1", "note": "(centres undefined)", "values": [
      {"measurement": "pEC50", "setting": "[1]", "result": 5.61}
    ]},
    {"smiles": "COC(=O)c1ccccc1NC(=O)N1CCc2c([nH]c3ccccc23)C1c1ccc(OC)cc1", "note": "(centres undefined)", "values": [
      {"measurement": "Activity", "setting": "[3]", "result": 14, "unit": "%"}
    ]},
    {"smiles": "COc1ccc(C2c3[nH]c4ccc(Cl)cc4c3CCN2C(=O)c2ccc(C(F)(F)F)cc2)cc1", "note": "(centres undefined)", "values": [
      {"measurement": "pEC50", "setting": "[1]", "result": 6.36}
    ]},
    {"smiles": "COCCOCCOCCOc1ccc(C2c3[nH]c4ccc(Cl)cc4c3CCN2C(=O)Nc2ccccc2C(=O)OC)cc1", "note": "(centres undefined)", "values": [
      {"measurement": "Activity", "setting": "[2]", "result": "Active"},
      {"measurement": "Activity", "setting": "[4]", "result": "Active"}
    ]},
    {"smiles": "COC(=O)c1sccc1NC(=O)N1CCc2c([nH]c3ccc(OC)cc23)C1c1ccc(C)cc1", "note": "(centres undefined)", "values": [
      {"measurement": "pEC50", "setting": "[1]", "result": 6.24}
    ]},
    {"smiles": "COC(=O)c1ccccc1NC(=O)N1CCc2c([nH]c3ccc(Cl)cc23)C1c1ccc(OC)cc1", "note": "(centres undefined)", "values": [
      {"measurement": "t1/2", "setting": "[5]", "result": "> 1.5", "unit": "h"},
      {"measurement": "solubility", "setting": "[6]", "result": "< 10", "unit": "µg/mL"},
      {"measurement": "half-life", "setting": "[7]", "result": "> 6", "unit": "h"},
      {"measurement": "half-life", "setting": "[8]", "result": "> 6", "unit": "h"},
      {"measurement": "pEC50", "setting": "[1]", "result": 6.80},
      {"measurement": "t1/2", "setting": "[9]", "result": 1.3, "unit": "h"}
    ]},
    {"smiles": "COc1ccc(C(=O)N2CCc3c([nH]c4ccc(Cl)cc34)C2c2ccc(OC)cc2)cc1", "note": "(centres undefined)", "values": [
      {"measurement": "pEC50", "setting": "[1]", "result": 6.81}
    ]},
    {"smiles": "COc1ccc(C2c3[nH]c4ccc(Cl)cc4c3CCN2C(=O)Nc2ccc(OC)cc2OC)cc1", "note": "(centres undefined)", "values": [
      {"measurement": "pEC50", "setting": "[1]", "result": 5.95}
    ]},
    {"smiles": "COc1ccc(C2c3[nH]c4ccc(Cl)cc4c3CCN2S(=O)(=O)c2ccccc2OC)cc1", "note": "(centres undefined)", "values": [
      {"measurement": "pEC50", "setting": "[1]", "result": 5.40}
    ]},
    {"smiles": "COC(=O)c1cccc(NC(=O)N2CCc3c([nH]c4ccc(Cl)cc34)C2c2ccc(OC)cc2)c1", "note": "(centres undefined)", "values": [
      {"measurement": "Activity", "setting": "[3]", "result": 17, "unit": "%"}
    ]},
    {"smiles": "COCCOCCOCCOc1ccc(C2c3[nH]c4ccc(Cl)cc4c3CCN2C(=O)Nc2ccccc2Cl)cc1", "note": "(centres undefined)", "values": [
      {"measurement": "Activity", "setting": "[2]", "result": "Active"},
      {"measurement": "Activity", "setting": "[4]", "result": "Active"}
    ]},
    {"smiles": "O=C(c1cccc(CN2CCOCC2)c1)N1CCc2c([nH]c3ccc(Cl)cc23)C1c1ccc(Cl)cc1", "note": "(centres undefined)", "values": [
      {"measurement": "pEC50", "setting": "[1]", "result": 6.56}
    ]},
    {"smiles": "COc1ccc(C2c3[nH]c4ccc(Cl)cc4c3CCN2C(=O)c2cccc(OC)c2)cc1", "note": "(centres undefined)", "values": [
      {"measurement": "t1/2", "setting": "[5]", "result": 0.517, "unit": "h"},
      {"measurement": "solubility", "setting": "[6]", "result": 166, "unit": "µg/mL"},
      {"measurement": "half-life", "setting": "[7]", "result": "> 6", "unit": "h"},
      {"measurement": "half-life", "setting": "[8]", "result": "> 6", "unit": "h"},
      {"measurement": "pEC50", "setting": "[1]", "result": 6.77},
      {"measurement": "t1/2", "setting": "[9]", "result": "> 1.5", "unit": "h"}
    ]},
    {"smiles": "CCOC(=O)c1ccccc1NC(=O)N1CCc2c([nH]c3ccc(OC)cc23)C1c1ccc(C)cc1", "note": "(centres undefined)", "values": [
      {"measurement": "pEC50", "setting": "[1]", "result": 5.97}
    ]},
    {"smiles": "COc1ccc(C2c3[nH]c4ccc(Cl)cc4c3CCN2C(=O)Nc2ccccc2OC)cc1", "note": "(centres undefined)", "values": [
      {"measurement": "pEC50", "setting": "[1]", "result": 6.77},
      {"measurement": "Activity", "setting": "[3]", "result": 79, "unit": "%"}
    ]}
  ]
}
